Experiments:
[1] = Absorbance and fluorescence emission spectra (SpectraMax M2); format: physicochemical; conditions: for λmax Abs. (nm) / λmax Em. (nm): MKAC compound library; for λmax Abs. (nm) / λmax Absorp. (nm): absorbance maximum; for λmax Em. (nm) / λmax Emission (nm): fluorescence emission maximum; for λmax Absorp. (nm) / λmax Emission (nm): MKCA compound library
Procedure, shortened: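 Spectroscopic data, including quantum yields, were recorded with a SpectraMax M2 instrument and analysed in GraphPrism.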

[2] = Quantum yield measurements versus Acridine Yellow in EtOH; format: physicochemical; conditions: for φ (quantum yield): excitation 460 nm; for φ (%): quantum yield
Procedure, shortened: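 Emission areas integrated over 510–700 nm were compared with Acridine Yellow in ethanol (Φ=0.47), all excited at 460 nm. The comparative equation was normalized to excitation-wavelength absorbance and solvent refractive index.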

CCCc1cn(-c2ccc3n2[B-](F)(F)[N+]2=C(N4CCCCC4)C=CC2=C3c2ccc(NC(=O)CCl)cc2)nn1 [BDCCA-48]
λmax Absorp. ([1]; BDCCA library, Table 4): 466 nm | λmax Emission ([1]; BDCCA library, Table 4): 569 nm | φ (quantum yield) ([2]; BDCCA library, Table 4): 1.4%

CC(=O)Nc1ccc(C2=C3C=CC(N4CCCCC4)=[N+]3[B-](F)(F)n3c2ccc3-n2cc(-c3cccc(F)c3)nn2)cc1 [BDCAC-31]
λmax Absorp. ([1]; BDCAC library, Table 3): 463 nm | λmax Emission ([1]; BDCAC library, Table 3): 569 nm | φ (quantum yield) ([2]; BDCAC library, Table 3): 0.9%

Nc1ccc(C2=C3C=CC(N4CCCCC4)=[N+]3[B-](F)(F)n3c2ccc3-n2cc(C3=CCCCC3)nn2)cc1 [BDC-37]
λmax Absorp. ([1]; BDC library, Table 2): 474 nm | λmax Emission ([1]; BDC library, Table 2): 579 nm | φ (quantum yield) ([2]; BDC library, Table 2): 0.12%

CCCCc1cn(-c2ccc3n2[B-](F)(F)[N+]2=C(N4CCCCC4)C=CC2=C3c2ccc(NC(=O)CCl)cc2)nn1 [BDCCA-42]
λmax Absorp. ([1]; BDCCA library, Table 4): 467 nm | λmax Emission ([1]; BDCCA library, Table 4): 577 nm | φ (quantum yield) ([2]; BDCCA library, Table 4): 1.3%

CCCc1cn(-c2ccc3n2[B-](F)(F)[N+]2=C(N(C)Cc4ccccc4)C=CC2=C3c2ccc(N)cc2)nn1 [MK195-48]
λmax Absorp. ([1]; MK library, Table 5): 476 nm | λmax Emission ([1]; MK library, Table 5): 584 nm | φ (quantum yield) ([2]; MK library, Table 5): 0.32%

COc1ccc(OC)c(CNC2=[N+]3C(=C(c4ccc(NC(C)=O)cc4)c4ccc(-n5cc(CC6CCCCC6)nn5)n4[B-]3(F)F)C=C2)c1 [MKAC181-8]
λmax Abs. (nm) [1]: 465 nm | λmax Em. (nm) [1]: 564 nm | φ (%) ([2]; MKAC compound library): 13.98%

CN(Cc1ccccc1)Cc1cn(-c2ccc3n2[B-](F)(F)[N+]2=C(N(C)Cc4ccccc4)C=CC2=C3c2ccc(NC(=O)CCl)cc2)nn1 [MKCA195-18]
λmax Absorp. (nm) [1]: 462 nm | λmax Emission (nm) [1]: 580 nm | φ (%) ([2]; MKCA compound library): 3.03%

Nc1ccc(C2=C3C=CC(NCc4cc(F)cc(F)c4)=[N+]3[B-](F)(F)n3c2ccc3-n2cc(CCc3ccccc3)nn2)cc1 [MK412-19]
λmax Absorp. ([1]; MK library, Table 5): 475 nm | λmax Emission ([1]; MK library, Table 5): 564 nm | φ (quantum yield) ([2]; MK library, Table 5): 0.92%

Nc1ccc(C2=C3C=CC(N4CCCCC4)=[N+]3[B-](F)(F)n3c2ccc3-n2cc(CC3CCCCC3)nn2)cc1 [BDC-8]
λmax Absorp. ([1]; BDC library, Table 2): 473 nm | λmax Emission ([1]; BDC library, Table 2): 585 nm | absorbance λmax ([1]; FIG. 2 normalized spectra): 473 nm | emission λmax ([1]; FIG. 2 normalized spectra): 585 nm | φ (quantum yield) ([2]; BDC library, Table 2): 0.24%

CCCC(C)c1cn(-c2ccc3n2[B-](F)(F)[N+]2=C(N4CCCC4)C=CC2=C3c2ccc(NC(=O)CCl)cc2)nn1 (centres unmarked) [MKCA215-3]
λmax Absorp. (nm) [1]: 463 nm | λmax Emission (nm) [1]: 569 nm | φ (%) ([2]; MKCA compound library): 3.99%

CCCC(C)c1cn(-c2ccc3n2[B-](F)(F)[N+]2=C(NCc4ccccc4OCC)C=CC2=C3c2ccc(NC(=O)CCl)cc2)nn1 (centres unmarked) [MKCA103-3]
λmax Absorp. (nm) [1]: 466 nm | λmax Emission (nm) [1]: 562 nm | φ (%) ([2]; MKCA compound library): 23.61%

CCOc1ccccc1CNC1=[N+]2C(=C(c3ccc(N)cc3)c3ccc(-n4cc(CO)nn4)n3[B-]2(F)F)C=C1 [MK103-70]
λmax Absorp. ([1]; MK library, Table 5): 472 nm | λmax Emission ([1]; MK library, Table 5): 562 nm | φ (quantum yield) ([2]; MK library, Table 5): 1.93%

CCCCCCCCc1cn(-c2ccc3n2[B-](F)(F)[N+]2=C(N4CCCCC4)C=CC2=C3c2ccc(NC(C)=O)cc2)nn1 [BDCAC-44]
λmax Absorp. ([1]; BDCAC library, Table 3): 468 nm | λmax Emission ([1]; BDCAC library, Table 3): 581 nm | φ (quantum yield) ([2]; BDCAC library, Table 3): 0.8%

Nc1ccc(C2=C3C=CC(N4CCCC4)=[N+]3[B-](F)(F)n3c2ccc3-n2cc(C3CC3)nn2)cc1 [MK215-4]
λmax Absorp. ([1]; MK library, Table 5): 470 nm | λmax Emission ([1]; MK library, Table 5): 576 nm | φ (quantum yield) ([2]; MK library, Table 5): 0.29%

CCCC(C)c1cn(-c2ccc3n2[B-](F)(F)[N+]2=C(NCc4cc(F)cc(F)c4)C=CC2=C3c2ccc(NC(=O)CCl)cc2)nn1 (centres unmarked) [MKCA412-3]
λmax Absorp. (nm) [1]: 467 nm | λmax Emission (nm) [1]: 563 nm | φ (%) ([2]; MKCA compound library): 41.81%

CN(Cc1ccccc1)C1=[N+]2C(=C(c3ccc(NC(=O)CCl)cc3)c3ccc(-n4cc(CC5CCCCC5)nn4)n3[B-]2(F)F)C=C1 [MKCA195-8]
λmax Absorp. (nm) [1]: 465 nm | λmax Emission (nm) [1]: 581 nm | φ (%) ([2]; MKCA compound library): 6.17%

Nc1ccc(C2=C3C=CC(N4CCc5ccccc5C4)=[N+]3[B-](F)(F)n3c2ccc3-n2cc(CO)nn2)cc1 [MK66-70]
λmax Absorp. ([1]; MK library, Table 5): 479 nm | λmax Emission ([1]; MK library, Table 5): 596 nm | φ (quantum yield) ([2]; MK library, Table 5): 0.14%

Nc1ccc(C2=C3C=CC(N4CCCCC4)=[N+]3[B-](F)(F)n3c2ccc3-n2cc(C3CC3)nn2)cc1 [BDC-4]
λmax Absorp. ([1]; BDC library, Table 2): 475 nm | λmax Emission ([1]; BDC library, Table 2): 590 nm | φ (quantum yield) ([2]; BDC library, Table 2): 0.16%

CC(=O)Nc1ccc(C2=C3C=CC(N4CCCCC4)=[N+]3[B-](F)(F)n3c2ccc3-n2cc(C(C)(C)C)nn2)cc1 [BDCAC-1]
λmax Absorp. ([1]; BDCAC library, Table 3): 469 nm | λmax Emission ([1]; BDCAC library, Table 3): 580 nm | φ (quantum yield) ([2]; BDCAC library, Table 3): 1.5%

CN(C)Cc1cn(-c2ccc3n2[B-](F)(F)[N+]2=C(N4CCCCC4)C=CC2=C3c2ccc(NC(=O)CCl)cc2)nn1 [BDCCA-2]
λmax Absorp. ([1]; BDCCA library, Table 4): 461 nm | λmax Emission ([1]; BDCCA library, Table 4): 586 nm | φ (quantum yield) ([2]; BDCCA library, Table 4): 0.4%

CCCc1cn(-c2ccc3n2[B-](F)(F)[N+]2=C(NCc4cc(F)cc(F)c4)C=CC2=C3c2ccc(NC(C)=O)cc2)nn1 [MKAC412-48]
λmax Abs. (nm) [1]: 467 nm | λmax Em. (nm) [1]: 561 nm | φ (%) ([2]; MKAC compound library): 22.19%

CCCC(C)c1cn(-c2ccc3n2[B-](F)(F)[N+]2=C(N(C)Cc4ccccc4)C=CC2=C3c2ccc(NC(=O)CCl)cc2)nn1 (centres unmarked) [MKCA195-3]
λmax Absorp. (nm) [1]: 466 nm | λmax Emission (nm) [1]: 577 nm | φ (%) ([2]; MKCA compound library): 7.95%

CCCCCC(O)c1cn(-c2ccc3n2[B-](F)(F)[N+]2=C(NCc4ccccc4OCC)C=CC2=C3c2ccc(NC(=O)CCl)cc2)nn1 (centres unmarked) [MKCA103-69]
λmax Absorp. (nm) [1]: 465 nm | λmax Emission (nm) [1]: 562 nm | φ (%) ([2]; MKCA compound library): 33.49%

Nc1ccc(C2=C3C=CC(NCc4cc(F)cc(F)c4)=[N+]3[B-](F)(F)n3c2ccc3-n2cc(CO)nn2)cc1 [MK412-70]
λmax Absorp. ([1]; MK library, Table 5): 470 nm | λmax Emission ([1]; MK library, Table 5): 562 nm | φ (quantum yield) ([2]; MK library, Table 5): 1.89%

CC(=O)Nc1ccc(C2=C3C=CC(N4CCc5ccccc5C4)=[N+]3[B-](F)(F)n3c2ccc3-n2cc(C3CCCC3)nn2)cc1 [MKAC66-5]
λmax Abs. (nm) [1]: 470 nm | λmax Em. (nm) [1]: 583 nm | φ (%) ([2]; MKAC compound library): 1.96%

CCCC(C)c1cn(-c2ccc3n2[B-](F)(F)[N+]2=C(N4CCCCC4)C=CC2=C3c2ccc(NC(=O)CCl)cc2)nn1 (racemic) [BDCCA-3]
λmax Absorp. ([1]; BDCCA library, Table 4): 467 nm | λmax Emission ([1]; BDCCA library, Table 4): 587 nm | φ (quantum yield) ([2]; BDCCA library, Table 4): 0.9%

CC(=O)Nc1ccc(C2=C3C=CC(N4CCCCC4)=[N+]3[B-](F)(F)n3c2ccc3-n2cc(CN(C)C)nn2)cc1 [BDCAC-2]
λmax Absorp. ([1]; BDCAC library, Table 3): 466 nm | λmax Emission ([1]; BDCAC library, Table 3): 591 nm | φ (quantum yield) ([2]; BDCAC library, Table 3): 0.8%

Nc1ccc(C2=C3C=CC(N4CCc5ccccc5C4)=[N+]3[B-](F)(F)n3c2ccc3-n2cc(CCc3ccccc3)nn2)cc1 [MK66-19]
λmax Absorp. ([1]; MK library, Table 5): 480 nm | λmax Emission ([1]; MK library, Table 5): 585 nm | φ (quantum yield) ([2]; MK library, Table 5): 0.13%

O=C(CCl)Nc1ccc(C2=C3C=CC(NCc4cc(F)cc(F)c4)=[N+]3[B-](F)(F)n3c2ccc3-n2cc(C3CCCC3)nn2)cc1 [MKCA412-5]
λmax Absorp. (nm) [1]: 468 nm | λmax Emission (nm) [1]: 563 nm | φ (%) ([2]; MKCA compound library): 41.21%

CCCCCC(O)c1cn(-c2ccc3n2[B-](F)(F)[N+]2=C(NCc4cc(OC)ccc4OC)C=CC2=C3c2ccc(NC(C)=O)cc2)nn1 (racemic) [MKAC181-69]
λmax Abs. (nm) [1]: 465 nm | λmax Em. (nm) [1]: 561 nm | φ (%) ([2]; MKAC compound library): 16.50%

CC(=O)Nc1ccc(C2=C3C=CC(N4CCCCC4)=[N+]3[B-](F)(F)n3c2ccc3-n2cc(-c3ccc(F)cc3F)nn2)cc1 [BDCAC-26]
λmax Absorp. ([1]; BDCAC library, Table 3): 465 nm | λmax Emission ([1]; BDCAC library, Table 3): 567 nm | φ (quantum yield) ([2]; BDCAC library, Table 3): 1.3%
